# Where “and” joins values, the source holds several entries; their conditions need not be identical. Identical values can stand only once. Ends that are not written are not given here.
# Tests used:
# Type in all cases: cell-based
# SIRT7 = SIRT7 transcription, semi-quantitative RT-PCR in human epidermal progenitors; settings: 72 h
# Description: (§1) Human neonatal epidermal progenitors (Thermo Fisher Scientific, NY) were seeded in 6-well plates at a density of 2×10^5 cells/well. Each well received 2 ml of Epilife media containing 60 μM calcium chloride (Thermo Fisher Scientific, NY). Plates were incubated in a humidified chamber at 37 degrees Celsius and 5 percent CO2. Twenty-four hours later, cells were treated with various concentrations of oxyresveratrol or decapeptide-12 dissolved in PBS containing 5 percent DMSO. Control wells received vehicle only (5 percent DMSO and PBS). Final concentration of DMSO in each well was 0.05 percent.
# (§2) After a 72 hour incubation period, cells were trypsinized and total RNA extracted, using RNeasy kit (Qiagen, Valencia, Calif.) according to the manufacturer's protocol.
# (§3) RNA concentration was determined using nanodrop (Thermo fisher scientific, NY). Two μg of total RNA were used to synthesize cDNA using oligo dT primers and TaqMan reverse transcription reagents (Thermo fisher scientific, NY). The reaction was carried out in DNA Engine Peltier Thermal Cycler (Bio-Rad, Hercules, Calif.). The annealing temperature was 25 degrees Celsius for 10 minutes, followed by first strand synthesis at 48 degrees Celsius for 1 hour, and heat inactivation at 95 degrees Celsius for 5 minutes.
# (§4) The SIRT1-7 primers (table 1) were designed using Primer3. The semi-quantitative PCR reactions were performed on a DNA Engine Peltier Thermo Cycler (Bio-Rad, Hercules, Calif.). PCR was carried under the following conditions: denaturation at 94 degrees Celsius for 2 minutes and primer extension at 54 degrees Celsius for 30 seconds in 34 cycles for SIRT 1-7 and the housekeeping gene 18S.
# (§5) Samples were run and resolved on a 1.5 percent agarose gel containing 0.5 μg/ml of ethidium bromide and imaged using the FluorChem HD2 Imaging System (Protein simple, San Jose, Calif.). Densitometry analysis was carried out using the AlphaEase FC software (Protein simple, San Jose, Calif.). Intensity ratios were calculated as the intensity value for each gene divided by the intensity value of the internal control gene 18S.
# (§6) The effect of the decapeptides P4, P4A, P4B, and P4C upon the transcription levels of sirtuins 1-7 was evaluated. Table 4 summarizes transcription levels for all four decapeptides with the corresponding genes, at tested concentrations of: 10, 30, 50, 100, and 300 (all in μM).
# in vitro = settings: human, human epidermal progenitors
# Description: Proliferation rates were determined using a TACS® MTT Cell Proliferation Kit (R&D systems, Minneapolis, Minn.). Cells were seeded at 2.5×10^4/well in 96-well plates in a humidified atmosphere with 5 percent CO2 at 37 degrees Celsius. Twenty-four hours later, decapeptide-12 or oxyresveratrol were added to the corresponding wells at varying concentrations (0, 3, 10, 30, 100, 300, and 1000 μM), and cultures were then incubated for 72 hours. The remainder of the procedure was performed following the manufacturer's protocol.
# Proliferation rates for three human cell lines (epidermal progenitors, melanoblasts, and fibroblasts) were determined using a TACS® MTT Cell Proliferation Kit. Cells were seeded at 2.5×10^4/well in 96-well plates in a humidified atmosphere with 5 percent CO2 at 37 degrees Celsius. Twenty-four hours later, the decapeptides were added to the corresponding wells at varying concentrations and incubated for 72 hours. The remainder of the procedure was performed following the manufacturer's protocol.
# SIRT6 = SIRT6 transcription, semi-quantitative RT-PCR in human epidermal progenitors; settings: 72 h
# Description: as §1, §2, §3, §4, §5, §6
# SIRT3 = SIRT3 transcription, semi-quantitative RT-PCR in human epidermal progenitors; settings: 72 h
# Description: as §1, §2, §3, §4, §5, §6
# SIRT2 = SIRT2 transcription, semi-quantitative RT-PCR in human epidermal progenitors; settings: 72 h
# Description: as §1, §2, §3, §4, §5, §6
sequence,measurement,setting,value
"YRSRKYSSWY [decapeptide-12, YRSRKYSSWY]",SIRT7 transcription increase relative to control,SIRT7; 3 μM,5 ± 1%
same,SIRT7 transcription increase relative to control,SIRT7; 10 μM,15 ± 4.2%
same,SIRT7 transcription increase relative to control,"SIRT7; 10 μM, listed as P4",15 ± 4%
same,SIRT7 transcription increase relative to control,SIRT7; 30 μM,34.4 ± 9.2%
same,SIRT7 transcription increase relative to control,"SIRT7; 30 μM, listed as P4",34 ± 9%
same,SIRT7 transcription increase relative to control,SIRT7; 50 μM,61.3 ± 10.2%
same,SIRT7 transcription increase relative to control,"SIRT7; 50 μM, listed as P4",61 ± 10%
same,SIRT7 transcription increase relative to control,SIRT7; 100 μM,95.4±14% and 95±14%
same,SIRT7 transcription increase relative to control,"SIRT7; 100 μM, listed as Deca",95.4 ± 14.2%
same,SIRT7 transcription increase relative to control,"SIRT7; 100 μM, listed as P4",95 ± 14%
same,SIRT7 transcription increase relative to control,SIRT7; 300 μM,148 ± 9.6%
same,SIRT7 transcription increase relative to control,"SIRT7; 300 μM, listed as P4",148 ± 10%
same,SIRT7 transcription increase relative to control,SIRT7; 500 μM,171.4 ± 8.4%
same,SIRT7 transcription increase relative to control,SIRT7; 1000 μM,181.1 ± 8.4%
same,"viability at 72 h, 3 µM",in vitro,100%
same,"viability at 72 h, 10 µM",in vitro,99 ± 1%
same,"viability at 72 h, 30 µM",in vitro,98 ± 1%
same,"viability at 72 h, 50 µM",in vitro,97 ± 1%
same,"viability at 72 h, 100 µM",in vitro,97 ± 1%
same,"viability at 72 h, 300 µM",in vitro,96 ± 1%
same,"viability at 72 h, 500 µM",in vitro,96 ± 2%
same,"viability at 72 h, 1000 µM",in vitro,94 ± 2%
same,SIRT6 transcription increase relative to control,SIRT6; 3 μM,3 ± 1%
same,SIRT6 transcription increase relative to control,SIRT6; 10 μM,21.3 ± 8.1%
same,SIRT6 transcription increase relative to control,"SIRT6; 10 μM, listed as P4",21 ± 8%
same,SIRT6 transcription increase relative to control,SIRT6; 30 μM,52 ± 5.1%
same,SIRT6 transcription increase relative to control,"SIRT6; 30 μM, listed as P4",52 ± 5%
same,SIRT6 transcription increase relative to control,SIRT6; 50 μM,95.4 ± 13.4%
same,SIRT6 transcription increase relative to control,"SIRT6; 50 μM, listed as P4",95 ± 13%
same,SIRT6 transcription increase relative to control,SIRT6; 100 μM,147±8% and 147%
same,SIRT6 transcription increase relative to control,"SIRT6; 100 μM, listed as Deca",147 ± 8.4%
same,SIRT6 transcription increase relative to control,"SIRT6; 100 μM, listed as P4",147 ± 8%
same,SIRT6 transcription increase relative to control,SIRT6; 300 μM,189 ± 9.5%
same,SIRT6 transcription increase relative to control,"SIRT6; 300 μM, listed as P4",189 ± 10%
same,SIRT6 transcription increase relative to control,SIRT6; 500 μM,194 ± 14%
same,SIRT6 transcription increase relative to control,SIRT6; 1000 μM,167 ± 12.2%
same,SIRT3 transcription increase relative to control,SIRT3; 3 μM,4 ± 1%
same,SIRT3 transcription increase relative to control,SIRT3; 10 μM,9.2 ± 2.8%
same,SIRT3 transcription increase relative to control,"SIRT3; 10 μM, listed as P4",9 ± 3%
same,SIRT3 transcription increase relative to control,SIRT3; 30 μM,32.2 ± 6.1%
same,SIRT3 transcription increase relative to control,"SIRT3; 30 μM, listed as P4",32 ± 6%
same,SIRT3 transcription increase relative to control,SIRT3; 50 μM,65 ± 12.1%
same,SIRT3 transcription increase relative to control,"SIRT3; 50 μM, listed as P4",65 ± 12%
same,SIRT3 transcription increase relative to control,SIRT3; 100 μM,121±13%
same,SIRT3 transcription increase relative to control,"SIRT3; 100 μM, listed as Deca",121 ± 13.2%
same,SIRT3 transcription increase relative to control,"SIRT3; 100 μM, listed as P4",121 ± 13%
same,SIRT3 transcription increase relative to control,"SIRT3; 100 μM, listed as decapeptide",121%
same,SIRT3 transcription increase relative to control,SIRT3; 300 μM,165.2 ± 12.4%
same,SIRT3 transcription increase relative to control,"SIRT3; 300 μM, listed as P4",165 ± 12%
same,SIRT3 transcription increase relative to control,SIRT3; 500 μM,177 ± 9.2%
same,SIRT3 transcription increase relative to control,SIRT3; 1000 μM,171 ± 9%
same,SIRT2 transcription increase relative to control,SIRT2; 3 μM,1 ± 1%
same,SIRT2 transcription increase relative to control,SIRT2; 10 μM,4.1 ± 3%
same,SIRT2 transcription increase relative to control,"SIRT2; 10 μM, listed as P4",4 ± 3%
